Measured values from article PMC10133251, “An intrinsic purine metabolite AICAR blocks lung tumour growth by targeting oncoprotein mucin 1” (British Journal of Cancer, 2023).

How the values were obtained:
MUC1-CT = target: T1, MUC1-CT (Homo sapiens, UniProt P15941); experiment: cellular thermal shift assay, western blot; format: cell-based; conditions: intact H1975 cells, 1 mM AICAR for 15 min, heated 3 min at 37-55 °C; stabilisation shown as curve only, no Tm; intracellular phosphorylation to ZMP possible
T1 construct: endogenous C-terminal beta subunit (MUC1-CT) of the cleaved MUC1 precursor in intact H1975 cells; detected by western blot with anti-MUC1-CT
T1 sequence (P15941 1098-1255 limits assumed): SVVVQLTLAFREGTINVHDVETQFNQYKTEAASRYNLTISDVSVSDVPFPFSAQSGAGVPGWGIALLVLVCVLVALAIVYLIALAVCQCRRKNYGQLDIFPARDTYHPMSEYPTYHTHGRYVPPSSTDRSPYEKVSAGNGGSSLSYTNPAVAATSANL

A549 = experiment: cells; parameters: species or system panel of lung tumour and stromal cell lines; CellTiter-Glo luminescent cell viability, 2D monolayer, 3000 cells per well in 96-well plate, vehicle-normalised; conditions: Homo sapiens, A549; viability, 72 h
Protocol: (§1) For 2D monolayer cell cultures, 3000 cells were plated into each well of a white 96-well plate in three replicates. After attachment, the cells were treated with AICAR, VX-509, osimertinib, and ABT-702 alone or in combinations for 72 h. The cell viability was measured at the treatment endpoint using the CellTiter-Glo® luminescent cell viability assay kit (Promega, Cat #G7570) according to the manufacturer’s instructions. The luminescent signal was recorded as relative light units (RLU). For 3D organoid cultures, the cell viability was measured using CellTiter-Glo 3D® Cell Viability Assay (Promega, Cat #G9681) according to the manufacturer’s protocol. The relative cell viability treated with the vehicle was normalised as 1. To explore the effects of AICAR treatment on lung cancer cell lines, we performed a cell viability assay using a panel of lung cancer cell lines based on the status of EGFR mutations (Table S1). […] To understand whether AICAR’s effects are dependent upon EGFR mutations, we tested drug response in another panel of lung cancer cells with wild-type EGFR, including H358, H23, H441, A549, and H69 (Fig. 1b). The average EC50 of tested EGFR wild-type cell lines (1.31 ± 0.18 mM) was higher than that of EGFR-mutant cell lines upon AICAR treatment (p < 0.05). To examine if there was any toxicity in stromal cells, we measured AICAR treatment response in a panel of primary lung stromal cell lines, including CCD-13Lu (fibroblasts), HULEC-5A (endothelial cells), and NR8383 (macrophages). […] 3000 cells (H3255, PC9-ER, HCC827, H1650, PC9, and H1975) were plated in a 96-well plate and treated with increasing doses of AICAR (0–10 mM). The cell viability was measured three days after treatment. Values were normalised to a vehicle-treated control group. N = 3 replicates. b Cell viability assay of AICAR in EGFR wild-type lung adenocarcinoma and small cell lung cancer cell lines. 3000 cells (A549, H23, H69, H358, and H441) were plated in a 96-well plate and treated with increasing doses of AICAR (0–10 mM). The cell viability was measured three days after treatment. Values were normalised to a vehicle-treated control group. N = 3 replicates. c Cell viability assay of AICAR in multiple types of primary lung stromal cells. 3000 cells (macrophages NR8383, endothelial cells HULEC-5A, and fibroblasts CCD-13Lu) were plated in a 96-well plate and treated with increasing doses of AICAR (0–10 mM). The cell viability was measured three days after treatment. Values were normalised to a vehicle-treated control group. N = 3 replicates. d Quantification of EC50 in EGFR mutant, wild-type, and non-malignant stromal lung cells. N = 3 replicates. e Flow cytometry analysis for time-dependent apoptosis in EGFR-mutant H1975 cells treated with AICAR. H1975 cells were plated in a 24-well plate and treated with AICAR (1 mM) for 0, 4, 7, and 16 h. After treatment, the apoptotic cells were quantified by flow cytometry analysis of cells stained with Annexin-V-APC and 7AAD. N = 4 replicates. f–h Flow cytometry analysis for apoptosis in multiple cell lines treated with AICAR. EGFR-mutant PC9 (f) and EGFR wild-type A549 (g) and H23 (h) cells were plated in a 24-well plate and treated with AICAR (1 mM) and vehicle control for 7 h. After treatment, the apoptotic cells were quantified by flow cytometry analysis of cells stained with Annexin-V-APC and 7AAD. N = 4 replicates. i, j Western blotting and relative quantification for expression levels of γ-H2AX (S139), H2AX, p-p53 (S33), p53, and […]

H1650 = experiment: cells; parameters: species or system panel of lung tumour and stromal cell lines; CellTiter-Glo luminescent cell viability, 2D monolayer, 3000 cells per well in 96-well plate, vehicle-normalised; conditions: Homo sapiens, NCI-H1650; viability, 72 h
Protocol: as §1

H1975 = experiment: cells; parameters: species or system panel of lung tumour and stromal cell lines; CellTiter-Glo luminescent cell viability, 2D monolayer, 3000 cells per well in 96-well plate, vehicle-normalised; conditions: Homo sapiens, NCI-H1975; viability, 72 h
Protocol: as §1

H23 = experiment: cells; parameters: species or system panel of lung tumour and stromal cell lines; CellTiter-Glo luminescent cell viability, 2D monolayer, 3000 cells per well in 96-well plate, vehicle-normalised; conditions: Homo sapiens, NCI-H23; viability, 72 h
Protocol: as §1

H3255 = experiment: cells; parameters: species or system panel of lung tumour and stromal cell lines; CellTiter-Glo luminescent cell viability, 2D monolayer, 3000 cells per well in 96-well plate, vehicle-normalised; conditions: Homo sapiens, NCI-H3255; viability, 72 h
Protocol: as §1

H358 = experiment: cells; parameters: species or system panel of lung tumour and stromal cell lines; CellTiter-Glo luminescent cell viability, 2D monolayer, 3000 cells per well in 96-well plate, vehicle-normalised; conditions: Homo sapiens, NCI-H358; viability, 72 h
Protocol: as §1

H441 = experiment: cells; parameters: species or system panel of lung tumour and stromal cell lines; CellTiter-Glo luminescent cell viability, 2D monolayer, 3000 cells per well in 96-well plate, vehicle-normalised; conditions: Homo sapiens, NCI-H441; viability, 72 h
Protocol: as §1

H69 = experiment: cells; parameters: species or system panel of lung tumour and stromal cell lines; CellTiter-Glo luminescent cell viability, 2D monolayer, 3000 cells per well in 96-well plate, vehicle-normalised; conditions: Homo sapiens, NCI-H69; viability, 72 h
Protocol: as §1

HCC827 = experiment: cells; parameters: species or system panel of lung tumour and stromal cell lines; CellTiter-Glo luminescent cell viability, 2D monolayer, 3000 cells per well in 96-well plate, vehicle-normalised; conditions: Homo sapiens, HCC827; viability, 72 h
Protocol: as §1

PC9-ER = experiment: cells; parameters: species or system panel of lung tumour and stromal cell lines; CellTiter-Glo luminescent cell viability, 2D monolayer, 3000 cells per well in 96-well plate, vehicle-normalised; conditions: Homo sapiens, PC-9/ER; viability, 72 h
Protocol: as §1

PC9 = experiment: cells; parameters: species or system panel of lung tumour and stromal cell lines; CellTiter-Glo luminescent cell viability, 2D monolayer, 3000 cells per well in 96-well plate, vehicle-normalised; conditions: Homo sapiens, PC-9; viability, 72 h
Protocol: as §1

in vitro = experiment: in vitro; parameters: species or system panel of lung tumour and stromal cell lines; CellTiter-Glo luminescent cell viability, 2D monolayer, 3000 cells per well in 96-well plate, vehicle-normalised; conditions: panel of lung tumour and stromal cell lines, EC50 (mM), viability, given as EC50
Protocol: (§2) For 2D monolayer cell cultures, 3000 cells were plated into each well of a white 96-well plate in three replicates. After attachment, the cells were treated with AICAR, VX-509, osimertinib, and ABT-702 alone or in combinations for 72 h. The cell viability was measured at the treatment endpoint using the CellTiter-Glo® luminescent cell viability assay kit (Promega, Cat #G7570) according to the manufacturer’s instructions. The luminescent signal was recorded as relative light units (RLU). For 3D organoid cultures, the cell viability was measured using CellTiter-Glo 3D® Cell Viability Assay (Promega, Cat #G9681) according to the manufacturer’s protocol. The relative cell viability treated with the vehicle was normalised as 1. To explore the effects of AICAR treatment on lung cancer cell lines, we performed a cell viability assay using a panel of lung cancer cell lines based on the status of EGFR mutations (Table S1). […] To understand whether AICAR’s effects are dependent upon EGFR mutations, we tested drug response in another panel of lung cancer cells with wild-type EGFR, including H358, H23, H441, A549, and H69 (Fig. 1b). […] To examine if there was any toxicity in stromal cells, we measured AICAR treatment response in a panel of primary lung stromal cell lines, including CCD-13Lu (fibroblasts), HULEC-5A (endothelial cells), and NR8383 (macrophages). […] The cell viability was measured three days after treatment. […] The cell viability was measured three days after treatment. […] The cell viability was measured three days after treatment. […] N = 3 replicates. d Quantification of EC50 in EGFR mutant, wild-type, and non-malignant stromal lung cells. […] After treatment, the apoptotic cells were quantified by flow cytometry analysis of cells stained with Annexin-V-APC and 7AAD. […] After treatment, the apoptotic cells were quantified by flow cytometry analysis of cells stained with Annexin-V-APC and 7AAD. N = 4 replicates. i, j Western blotting and relative quantification for expression levels of γ-H2AX (S139), H2AX, p-p53 (S33), p53, and […]

HULEC-5A = experiment: in vitro; parameters: species or system panel of lung tumour and stromal cell lines; CellTiter-Glo luminescent cell viability, 2D monolayer, 3000 cells per well in 96-well plate, vehicle-normalised; conditions: viability, 72 h; given as EC50; inhibitor
Protocol: as §2

NR8383 = experiment: in vitro; parameters: species or system panel of lung tumour and stromal cell lines; CellTiter-Glo luminescent cell viability, 2D monolayer, 3000 cells per well in 96-well plate, vehicle-normalised; conditions: viability, 72 h; given as EC50; inhibitor
Protocol: as §2

**Q.** What does the source list for NC(=O)c1ncn([C@@H]2O[C@H](CO)[C@@H](O)[C@H]2O)c1N [AICAR]?
**A.** thermal stability (MUC1-CT): AICAR incubation in H1975 cells significantly increased protein stability in MUC1-CT than vehicle-treated groups; EC50 (A549): 1600 µM; EC50 (H1650): 420 µM; EC50 (H1975): 298 µM; EC50 (H23): 1610 µM; EC50 (H3255): 320 µM; EC50 (H358): 1280 µM; EC50 (H441): 640 µM; EC50 (H69): 1440 µM; EC50 (HCC827): 880 µM; EC50 (PC9-ER): 410 µM; EC50 (PC9): 300 µM; CC50 at 72 h (in vitro): 1.03 mM; CC50 (HULEC-5A): 1450 µM; CC50 (NR8383): 1110 µM
